The record followed here is the NIST ThermoML archive (doi:10.1016/j.jct.2012.06.023).

For data set [1] the following is noted: 298.15 K; for surface tension liquid-gas: Wilhelmy plate; for viscosity: 101.33 kPa, Liquid, Concentric cylinders viscometry.
Data set [2] can be described thus: refractive index (Na D-line) (dimensionless). The conditions noted are these: 293.1 K; 101.33 kPa; Liquid; Standard Abbe refractometry.
Data set [3] is described as follows: xn = mol fraction of the nth substance listed. The conditions noted are these: x1 = 1; for surface tension liquid-gas: Wilhelmy plate; for viscosity: 101 kPa, Liquid, Concentric cylinders viscometry.

Numbers after ± are expanded uncertainties.

The term surface tension liquid-gas denotes the force per length acting along the surface. For orientation: viscosity means the internal friction of a fluid under shear. For orientation: refractive index means a measure of how strongly the sample bends light. Consider `CN(C)C=O` [dimethylformamide], for which, in data set [1], the surface tension liquid-gas is 35.2 ± 0.04 mN/m and the viscosity is recorded as 0.8162 ± 0.0092 mPa·s. Moreover, in data set [2], the refractive index was found to be 1.429 ± 0.02.
As to `CN(C)C=O` [dimethylformamide] + CCCCCCCO, the surface tension liquid-gas was determined as 35.2 ± 0.04 mN/m in data set [3] (298.15 K), 34.1 ± 0.04 mN/m in data set [3] (303.15 K), 33 ± 0.04 mN/m in data set [3] (308.15 K) and 32 ± 0.03 mN/m in data set [3] (313.15 K). The viscosity in data set [3] (298.15 K) stood at 0.8162 ± 0.0092 mPa·s; in data set [3] (303.15 K) it was 0.7678 ± 0.0091 mPa·s; in data set [3] (308.15 K) it was 0.7262 ± 0.009 mPa·s; in data set [3] (313.15 K) it was 0.678 ± 0.0089 mPa·s.
For `CN(C)C=O` [dimethylformamide] + CCCCCCO, the surface tension liquid-gas in data set [3] (298.15 K) is 35.2 ± 0.04 mN/m; in data set [3] (303.15 K), 34.1 ± 0.04 mN/m; in data set [3] (308.15 K), 33 ± 0.04 mN/m; in data set [3] (313.15 K), 32 ± 0.03 mN/m. Further, the viscosity worked out at 0.8162 ± 0.0092 mPa·s in data set [3] (298.15 K), 0.7678 ± 0.0091 mPa·s in data set [3] (303.15 K), 0.7262 ± 0.009 mPa·s in data set [3] (308.15 K) and 0.678 ± 0.0089 mPa·s in data set [3] (313.15 K).
`CN(C)C=O` [dimethylformamide] + CCCCCO: the surface tension liquid-gas in data set [3] (298.15 K) amounted to 35.2 ± 0.04 mN/m; in data set [3] (303.15 K), 34.1 ± 0.04 mN/m; in data set [3] (308.15 K), 33 ± 0.04 mN/m; in data set [3] (313.15 K) it was 32 ± 0.03 mN/m. In addition, the viscosity in data set [3] (298.15 K) worked out at 0.8162 ± 0.0092 mPa·s; in data set [3] (303.15 K) it was 0.7678 ± 0.0091 mPa·s; in data set [3] (308.15 K) it was 0.7262 ± 0.009 mPa·s; in data set [3] (313.15 K) it was 0.678 ± 0.0089 mPa·s.
Regarding `CCCCCCCO` [heptan-1-ol], in data set [1], the surface tension liquid-gas is reported as 26.47 ± 0.13 mN/m and the viscosity is 5.944 ± 0.038 mPa·s. Besides, in data set [2], the refractive index is 1.424 ± 0.02.
Regarding `CCCCCCO` [hexan-1-ol], the viscosity in data set [1] stood at 4.593 ± 0.022 mPa·s. Moreover, the refractive index in data set [2] stood at 1.418 ± 0.001.
For `CCCCCO` [pentan-1-ol], in data set [1], the surface tension liquid-gas is recorded as 24.55 ± 0.062 mN/m and the viscosity is 3.5 ± 0.018 mPa·s. In addition, the refractive index in data set [2] is listed as 1.409 ± 0.02.
